Source: PMC12737022, “Evaluations of Sex Differences in Dosimetry in Rats Following Perfluorohexanesulfonamide (PFHxSA) Oral Exposure” (Toxics, 2025)

Columns and labels:
[1] = Ultracentrifugation plasma protein binding assay, human plasma; assay type: in vitro ADME
Procedure: Human and rat plasma were evaluated for plasma protein binding of PFHxSA and PFHxS using ultracentrifugation. Data generated in human plasma were obtained from an earlier study; for this study, data were generated in rat plasma following the same protocol as described by Smeltz et al.. SD rat plasma (pooled, mixed sex) was obtained from a commercial vendor (BioIVT, Westbury, NY, USA). Briefly, PFHxSA and PFHxS were added to the plasma to achieve a final assay concentration of 10 µM. Following a 1 h 37 °C incubation, 1 mL aliquots from each plasma solution were drawn in triplicate and transferred to polycarbonate ultracentrifuge tubes. These samples underwent ultracentrifugation (Beckman OptimaMax; Beckman Coulter Inc., Indianapolis, IN, USA) at 850,000× g for 4 h at 37 °C; after completion, the aqueous fraction (AF) was collected by transferring the supernatant to a new tube. Two sets of samples of the original PFAS-spiked whole plasma were also collected after a 1 h or a 5 h incubation at 37 °C. […]
Intrinsic hepatic clearance (Clint) and fraction unbound in plasma (fup) were calculated from the experimental point estimate data as described in Dobreniecki et al.. […] Renal clearance was calculated using the glomerular filtration rate (a species-dependent constant) and the fraction unbound in blood (fub), estimated by adjusting the experimental fup for blood/plasma partitioning. […]

[2] = system: Sprague Dawley rats; assay: 5-day repeat dose in vivo study, survival; design: species or system rat; details: 0.01 to 100 mg/kg/day oral gavage once daily for five days; both sexes
Description: The plasma and liver samples for this investigation were provided by Mutlu et al.. The study design, including detailed descriptions of animal handling, procedures for dosing, clinical observations, termination, and collection of tissues, is reported elsewhere and is consistent with the ARRIVE guidelines. Briefly, male and female Sprague Dawley (SD) rats (Crl:CD(SD)) (n = 48/sex, 96 total) were purchased from Charles River Laboratory (Raleigh, NC, USA) and allowed to acclimate for ≥5 days before initial dosing. Rats were 8–10 weeks old at the time of exposure. PFHxSA dosing solutions in corn oil were prepared on Day 0 and used over the course of the study. Rats of both sexes (n = 5/sex, dose, and time point, plus eight vehicle controls per sex) were dosed by oral gavage (5 mL/kg body weight) once daily for five days. […] The formulation concentrations decreased from 100 mg/kg/day at half-log10 intervals until the lowest dose level, which was a full log10 interval below the next higher dose, giving eight dose levels (0.01 to 100 mg/kg/day or 0.025 µmol/kg/day to 250 µmol/kg/day) in addition to vehicle controls. Doses were administered in randomized order within ± 1 h on each day of dosing. […] Rats were euthanized 24 h after the last dose. […]

[3] = system: Sprague Dawley rats; assay: Plasma thyroid hormone quantitation after 5-day oral PFHxSA exposure; assay type: in vivo, rat
Description: The plasma and liver samples for this investigation were provided by Mutlu et al.. The study design, including detailed descriptions of animal handling, procedures for dosing, clinical observations, termination, and collection of tissues, is reported elsewhere and is consistent with the ARRIVE guidelines. Briefly, male and female Sprague Dawley (SD) rats (Crl:CD(SD)) (n = 48/sex, 96 total) were purchased from Charles River Laboratory (Raleigh, NC, USA) and allowed to acclimate for ≥5 days before initial dosing. Rats were 8–10 weeks old at the time of exposure. PFHxSA dosing solutions in corn oil were prepared on Day 0 and used over the course of the study. Rats of both sexes (n = 5/sex, dose, and time point, plus eight vehicle controls per sex) were dosed by oral gavage (5 mL/kg body weight) once daily for five days. […] The formulation concentrations decreased from 100 mg/kg/day at half-log10 intervals until the lowest dose level, which was a full log10 interval below the next higher dose, giving eight dose levels (0.01 to 100 mg/kg/day or 0.025 µmol/kg/day to 250 µmol/kg/day) in addition to vehicle controls. Doses were administered in randomized order within ± 1 h on each day of dosing. […] Rats were euthanized 24 h after the last dose. Blood was collected via cardiac puncture with tripotassium ethylene diamine tetraacetic acid (K3EDTA) as an anti-coagulant and centrifuged to collect cell-free plasma. Liver was collected and flash-frozen in liquid nitrogen. Liver, plasma, and dosing formulation samples were frozen at the USEPA Center for Computational Toxicology and Exposure (CCTE), Durham, NC, USA. Tissue samples (plasma and liver, n = 96 each) were stored at ≤−70 °C prior to extraction; dosing formulation samples (n = 9) were stored at −20 °C.
Thyroid hormones (TH) triiodothyronine (T3), reverse triiodothyronine (rT3), and thyroxine (T4) (SI Table S1) were extracted from plasma spiked with ^13C-labeled TH in batches of up to 96 samples, along with an MB, CCV, and LCS for QC. Gibco (Billings, MT, USA) Dulbecco’s Phosphate-Buffered Saline was used as the control matrix. See SI Text S3 for the extraction procedure.
Samples were analyzed as previously described in O’Shaughnessy et al.. Isotope dilution targeted LC/MS/MS was performed using a Sciex (Framingham, MA, USA) 6500+ QTRAP liquid chromatography/linear ion trap mass spectrometer system operated in positive electrospray ionization (ESI) mode with multiple reaction monitoring (MRM) scanning. A Restek (Bellefonte, PA, USA) Raptor Biphenyl column (100 mm × 2.1 mm, 2.6 µm) was used for chromatographic separation with a flow rate of 0.3 mL/min and a 50 °C column temperature. Gradient elution (see SI Table S2) was obtained with 0.1% formic acid in water (H2O) (mobile phase A) and 0.1% formic acid in methanol (MeOH) (mobile phase B). Detection limits for T3, rT3, and T4 were 0.04 ng/mL in plasma. […]
Acceptance criterion for the ICV was a recovery of ± 20% of the nominal concentration of the ICV as quantitated from the calibration curve. Method blank, CCV, and LCS were injected at the beginning of every extraction batch and reinjected after every 30 samples to confirm the validity of the calibration curve and sample quantitation. If fewer than 30 samples were injected, all samples were bracketed by injections of the CCV at the beginning and end of the analysis batch.
Acceptance criteria for the CCV and LCS were ± 30% of nominal concentration. Method blanks were acceptable with PFHxSA signal < 0.5x the LOQ. Samples were injected in order of increasing dose.
Quantitation of PFHxS in liver and plasma was performed using the same QC criteria and extraction methods as PFHxSA, only the internal standard was supplied in the form of a Wellington Laboratories isotopically labeled MPFAC-24ES PFAS mixture containing 13C3-PFHxS. Samples were quantitated against PFHxS matrix-matched calibration curves containing a minimum of 5 points spanning the range […]

NS(=O)(=O)C(F)(F)C(F)(F)C(F)(F)C(F)(F)C(F)(F)C(F)(F)F [PFHxSA, Perfluorohexanesulfonamide]
Plasma binding of PFHxSA higher than PFHxS [1]: 2.25 fold | Survival [2]: All rats survived to termination | rT3 in female rat plasma ([3]; all doses): not detected | rT3 in male rat plasma ([3]; detected sporadically): no dose-responsive effect | Dose with plasma T4 statistically different from controls ([3]; female rats): 100 mg/kg/day | Dose with plasma T3 statistically different from controls ([3]; male and female rats): 100 mg/kg/day | Dose from which plasma T4 was significantly decreased ([3]; male rats): 10 mg/kg/day | Exposures at which changes in THs occur ([3]; rats): ≥ 10 mg/kg/day
